Experimental data reported in PMC4467547 (Journal of Medicinal Chemistry, 2015).
Residue numbers refer to the chain shown, from its start.

Legend:
[1] = test system: tubulin acetylation in HH cells; experiment: western blot analysis of tubulin acetylation; assay type: cell-based; conditions: 6 and 20 μM, 4 h
HH (CTCL) cells = experiment: MTS cell proliferation assay; assay type: cell-based
reactivity with GSH = assay type: physicochemical; conditions: GSH 2 mM, 2 equiv, 50 mM HEPES pH 7.4, 2 h at 37 °C
human plasma stability = assay type: in vitro ADME; conditions: 1 h, 37 °C
[2] = test system: tubulin acetylation in Jurkat cells; experiment: western blot analysis of tubulin acetylation; assay type: cell-based; conditions: 6 and 20 μM, 4 h
[3] = aqueous stability under simulated physiological conditions; assay type: physicochemical; conditions: 50 mM HEPES, pH 7.4, 37 °C, 24 h
[4] = stability in the presence of assay components BSA or trypsin; assay type: physicochemical; conditions: BSA (5 mg/mL) or trypsin (5 mg/mL), 37 °C, 2 h; data not shown
WT HDAC8 (Zn2+) = biological target: T1, WT HDAC8 (Zn2+) (Homo sapiens, UniProt Q9BY41); experiment: HDAC8 time-course inhibition; assay type: biochemical
T1 sequence (Q9BY41 1-377): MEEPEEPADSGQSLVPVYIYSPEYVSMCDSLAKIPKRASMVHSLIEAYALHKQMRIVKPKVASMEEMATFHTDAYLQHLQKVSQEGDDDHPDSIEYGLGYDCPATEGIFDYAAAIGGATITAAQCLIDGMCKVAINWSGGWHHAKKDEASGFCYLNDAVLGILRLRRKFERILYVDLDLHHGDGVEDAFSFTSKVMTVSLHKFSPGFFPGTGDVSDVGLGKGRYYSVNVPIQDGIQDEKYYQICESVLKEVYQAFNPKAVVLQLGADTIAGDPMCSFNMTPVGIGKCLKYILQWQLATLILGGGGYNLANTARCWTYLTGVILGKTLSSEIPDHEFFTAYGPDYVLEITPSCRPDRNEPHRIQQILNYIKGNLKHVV

C153A HDAC8 = biological target: T2, C153A HDAC8 (Homo sapiens, UniProt Q9BY41, C153A); experiment: HDAC8 time-course inhibition; conditions: SAHA 0-8 μM, SAHA-OBn 0-10 μM (Figure S8)
T2 sequence (Q9BY41 1-377 C153A): T1 sequence (Q9BY41 1-377) with C153A

In the case of `CC1=C(C)C(=O)C(CONC(=O)CCCCCCC(=O)Nc2ccccc2)=C(C)C1=O` [SAHA-TAP], the “tubulin acetylation (western blot)” value [1] was “increased tubulin acetylation”, the “less potent than SAHA in cells” value (HH (CTCL) cells; HH and Jurkat cells) was 3–4 fold and the “reactivity with GSH (in words)” value (reactivity with GSH) was “reacts rapidly with GSH”. For the same compound, the “percent parent compound remaining” value (human plasma stability) was “Approximately 72%”, the “tubulin acetylation (western blot)” value [2] was “increased tubulin acetylation” and the “stable to hydrolysis in the absence of thiols” value [3] was > 97%. The “stable in the presence of assay components” value [4] was > 95%, the “maximal rate constant for inactivation” value (WT HDAC8 (Zn2+); at saturating SAHA-TAP) was 0.0013 s^–1 and the “time of activity loss on preincubation of enzyme with inhibitor” value (WT HDAC8 (Zn2+); preincubation, data not shown) was ≤ 0.5 h.
In the case of `O=C(CCCCCCC(=O)Nc1ccccc1)NOCc1ccccc1` [SAHA-OBn], the “effect on cell proliferation (in words)” value (HH (CTCL) cells; all cells studied (HH, Jurkat, NIH/3T3)) was “unaffected”, the “reactivity with GSH (in words)” value (reactivity with GSH) was “no change in the HPLC chromatogram” and the “inhibition of HDAC8 activity (in words)” value (WT HDAC8 (Zn2+); inhibitor 2–10 μM) was “does not inhibit”.
For `O=C(CCCCCCC(=O)Nc1ccccc1)NO` [SAHA, suberoylanilide hydroxamic acid, reference compound], the “percent parent compound remaining” value (human plasma stability) was ~60%, the “inhibition of HDAC8” value (WT HDAC8 (Zn2+)) was > 90% and the “inhibition of C153A HDAC8 (in words)” value (C153A HDAC8) was “susceptible to inhibition”.
